Calls of active or inactive are those of the source.
How the values were obtained:
[1] = biological target: T1, Protein RecA (Mycobacterium tuberculosis, UniProt P9WHJ3); assay: Fluorescence Cell-Free Homogeneous Dose Retest to Identify Inhibitors of RecA-Intein Splicing Activity. [Related pubchem assays (depositor defined):AID2097, AID2223, AID489010, AID492950]; type: functional
T1 sequence (P9WHJ3 whole entry): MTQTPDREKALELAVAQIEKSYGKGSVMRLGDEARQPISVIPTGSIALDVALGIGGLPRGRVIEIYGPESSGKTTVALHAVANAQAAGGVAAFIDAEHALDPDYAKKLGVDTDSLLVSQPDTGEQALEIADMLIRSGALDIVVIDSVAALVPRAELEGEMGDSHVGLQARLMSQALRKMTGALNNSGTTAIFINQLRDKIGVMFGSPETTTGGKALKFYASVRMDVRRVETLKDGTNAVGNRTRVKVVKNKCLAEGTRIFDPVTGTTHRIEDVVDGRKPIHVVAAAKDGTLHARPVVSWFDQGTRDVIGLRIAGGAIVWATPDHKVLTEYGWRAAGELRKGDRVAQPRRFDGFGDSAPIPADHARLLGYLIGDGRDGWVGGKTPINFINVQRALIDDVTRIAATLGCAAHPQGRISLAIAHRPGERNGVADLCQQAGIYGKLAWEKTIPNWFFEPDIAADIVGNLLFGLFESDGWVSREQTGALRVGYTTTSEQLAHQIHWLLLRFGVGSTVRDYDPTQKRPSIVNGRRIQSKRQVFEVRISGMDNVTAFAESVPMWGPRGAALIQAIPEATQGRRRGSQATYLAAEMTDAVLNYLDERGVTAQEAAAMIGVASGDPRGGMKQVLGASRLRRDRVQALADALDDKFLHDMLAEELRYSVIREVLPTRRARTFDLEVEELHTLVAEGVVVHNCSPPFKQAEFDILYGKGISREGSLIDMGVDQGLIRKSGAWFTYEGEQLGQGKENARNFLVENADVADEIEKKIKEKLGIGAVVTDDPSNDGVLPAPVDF

[2] = biological target: T2, Replicative DNA helicase DnaB (Mycobacterium tuberculosis, UniProt P9WMR3); assay: DnaB intein splicing inhibitors, dose response, biochemical, cell-free fluorescence (AID 449749); type: functional
T2 sequence (P9WMR3 whole entry): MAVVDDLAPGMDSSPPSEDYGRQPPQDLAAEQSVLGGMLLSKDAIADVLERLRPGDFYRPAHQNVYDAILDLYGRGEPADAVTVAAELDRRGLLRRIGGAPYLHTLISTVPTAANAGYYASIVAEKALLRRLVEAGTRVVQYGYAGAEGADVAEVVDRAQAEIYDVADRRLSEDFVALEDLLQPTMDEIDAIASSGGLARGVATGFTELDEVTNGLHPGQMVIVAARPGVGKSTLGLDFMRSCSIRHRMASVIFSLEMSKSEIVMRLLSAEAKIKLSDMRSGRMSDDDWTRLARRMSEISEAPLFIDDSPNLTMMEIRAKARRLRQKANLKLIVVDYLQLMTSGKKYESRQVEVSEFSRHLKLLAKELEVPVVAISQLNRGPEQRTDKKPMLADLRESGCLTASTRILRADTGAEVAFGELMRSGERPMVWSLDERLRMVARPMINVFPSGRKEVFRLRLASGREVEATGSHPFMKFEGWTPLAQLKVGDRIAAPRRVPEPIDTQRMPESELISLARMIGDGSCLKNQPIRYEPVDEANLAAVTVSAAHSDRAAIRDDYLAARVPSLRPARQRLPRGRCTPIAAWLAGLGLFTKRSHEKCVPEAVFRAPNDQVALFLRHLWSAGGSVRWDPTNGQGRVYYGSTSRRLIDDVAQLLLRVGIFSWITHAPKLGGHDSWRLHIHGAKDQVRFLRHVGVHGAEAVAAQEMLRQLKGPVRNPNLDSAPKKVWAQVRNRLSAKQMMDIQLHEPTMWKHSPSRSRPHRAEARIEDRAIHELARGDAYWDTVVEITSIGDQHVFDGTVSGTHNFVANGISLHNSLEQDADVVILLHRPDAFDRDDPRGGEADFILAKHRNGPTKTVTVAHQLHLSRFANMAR

[3] = biological target: T3, Protein skinhead-1 (Caenorhabditis elegans, UniProt P34707); type: functional
T3 sequence (P34707 whole entry): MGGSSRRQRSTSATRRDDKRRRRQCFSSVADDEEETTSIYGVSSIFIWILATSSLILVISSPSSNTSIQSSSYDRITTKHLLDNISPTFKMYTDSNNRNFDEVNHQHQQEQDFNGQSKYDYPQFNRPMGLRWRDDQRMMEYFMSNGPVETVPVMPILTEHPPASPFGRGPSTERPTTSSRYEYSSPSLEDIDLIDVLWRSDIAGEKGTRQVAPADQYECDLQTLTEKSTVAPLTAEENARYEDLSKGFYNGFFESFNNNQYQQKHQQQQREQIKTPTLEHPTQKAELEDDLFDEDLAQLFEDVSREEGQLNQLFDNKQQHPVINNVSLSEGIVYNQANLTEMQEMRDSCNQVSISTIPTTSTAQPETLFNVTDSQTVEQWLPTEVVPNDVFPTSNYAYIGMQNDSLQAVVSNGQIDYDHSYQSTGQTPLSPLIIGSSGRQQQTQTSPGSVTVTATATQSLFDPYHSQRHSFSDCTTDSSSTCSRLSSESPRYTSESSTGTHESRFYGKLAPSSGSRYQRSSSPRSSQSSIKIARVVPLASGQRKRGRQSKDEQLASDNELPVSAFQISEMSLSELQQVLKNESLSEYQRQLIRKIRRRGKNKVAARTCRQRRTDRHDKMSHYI

[4] = test system: H4; assay: Luminescence Cell-Based Dose Response HTS to Identify Activators of 5'UTR Stem-Loop Driven Prion Protein mRNA Translation in H4 Neuroglioblastoma Cells. [Related pubchem assays: 1829 (Project Summary), 1814 (Primary HTS)]; type: functional; settings: Homo sapiens
[5] = Luminescence Cell-Based Dose Response HTS to Identify Activators of Luciferase Translation or Activity in H4 […] Cells. [Related pubchem assays: 1829 (Project Summary), 1814 (Primary HTS)]; type: functional
[6] = Luminescence Cell-Based Dose Confirmation HTS to Identify Activators of 5'UTR Stem-Loop Driven Alpha-Synuclein mRNA Translation in H4 Neuroglioblastoma Cells. [Related pubchem assays: 1829 (Project Summary), 1814 (Primary HTS)]; type: functional
[7] = biological target: T4, Ubiquitin-conjugating enzyme E2 N (Homo sapiens, UniProt P61088); type: functional;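 further: Dose-response confirmation in a TR-FRET assay detecting UBC13-driven polyubiquitin chain formation, inhibition measured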
T4 sequence (P61088 whole entry): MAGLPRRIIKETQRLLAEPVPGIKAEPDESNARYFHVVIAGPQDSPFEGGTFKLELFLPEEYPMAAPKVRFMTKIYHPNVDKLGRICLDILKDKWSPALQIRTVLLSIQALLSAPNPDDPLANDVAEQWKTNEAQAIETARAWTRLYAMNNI

[8] = test system: BJ; assay: BJ-TERT fibroblast viability loss – cell-based, RAS-independent, luminescence, dose response (AID 1933); type: functional; settings: Homo sapiens
[9] = DRD fibroblast viability loss – cell-based, non-viral oncogenic, luminescence, dose response (AID 1934); type: functional; settings: Homo sapiens
[10] = test system: BJ; assay: BJ-TERT-LT-ST fibroblast viability loss – cell-based, RAS-independent, luminescence, dose response (AID 1935); type: functional; settings: Homo sapiens;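 further: BJ fibroblasts immortalized with TERT plus LT and ST oncogenes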
[11] = microbe, parasite or virus in culture; type: functional; settings: Mycobacterium tuberculosis
[12] = test system: BJ; assay: cells; type: functional, cell-based; settings: Homo sapiens
[13] = test system: H9c2; assay: cells; type: functional, cell-based; settings: Rattus norvegicus, H9c2, Myocardium;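 further: confirmatory concentration-response retest of ultra-high-throughput screening hits for modulation of myocardial damage; cell death induced by hydrogen peroxide oxidative stress; compound pretreatment for 60 min then peroxide exposure for 2 h; potency is for protecting the cells against peroxide damage rather than for killing them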
[14] = Luminescence Cell-Based Dose Retest to Confirm Inhibitors of Cancer Stem Cells. [Related pubchem assays (depositor defined):AID2717, AID2721]; type: functional; settings: Homo sapiens
[15] = biological target: FAD-linked sulfhydryl oxidase ALR (Homo sapiens, UniProt P55789); assay: ALR-catalysed DTT oxidation blockers – biochemical, H2O2 detection, luminescence, cherry-pick, dose response (AID 493248)
[16] = biological target: T5, Leucine aminopeptidase (Plasmodium falciparum 3D7, UniProt Q8IL11); assay: P. falciparum M17LAP inhibitors, primary screen, biochemical, fluorogenic H-Leu-NHMec substrate, 1536-well (AID 1619); type: functional
T5 sequence (Q8IL11 whole entry): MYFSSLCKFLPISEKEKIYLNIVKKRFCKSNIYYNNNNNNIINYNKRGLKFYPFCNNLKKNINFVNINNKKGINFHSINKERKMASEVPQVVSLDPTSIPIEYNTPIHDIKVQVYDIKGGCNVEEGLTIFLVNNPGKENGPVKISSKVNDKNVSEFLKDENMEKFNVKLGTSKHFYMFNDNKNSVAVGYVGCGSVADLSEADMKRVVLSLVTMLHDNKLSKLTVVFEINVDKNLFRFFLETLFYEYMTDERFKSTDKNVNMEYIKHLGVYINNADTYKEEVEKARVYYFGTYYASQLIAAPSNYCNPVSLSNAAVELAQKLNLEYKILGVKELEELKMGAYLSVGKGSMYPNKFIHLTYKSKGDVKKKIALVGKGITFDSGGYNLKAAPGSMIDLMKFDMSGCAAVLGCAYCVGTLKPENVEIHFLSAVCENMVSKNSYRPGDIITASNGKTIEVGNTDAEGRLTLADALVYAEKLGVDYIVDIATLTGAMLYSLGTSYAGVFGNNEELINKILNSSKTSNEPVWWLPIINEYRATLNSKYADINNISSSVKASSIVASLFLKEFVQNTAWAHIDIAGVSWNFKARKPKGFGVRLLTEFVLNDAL

[17] = reduction of Shn3 3'UTR-driven luciferase in osteoblasts – cell-based, Clone20 osteoblasts, firefly luciferase, cherry-picked, dose response (AID 624132); type: functional;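 further: firefly luciferase luminescence from reporter carrying the Shn3 3'UTR in osteoblasts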
[18] = cells; type: functional

FAD-linked sulfhydryl oxidase ALR, sequence (P55789 whole entry): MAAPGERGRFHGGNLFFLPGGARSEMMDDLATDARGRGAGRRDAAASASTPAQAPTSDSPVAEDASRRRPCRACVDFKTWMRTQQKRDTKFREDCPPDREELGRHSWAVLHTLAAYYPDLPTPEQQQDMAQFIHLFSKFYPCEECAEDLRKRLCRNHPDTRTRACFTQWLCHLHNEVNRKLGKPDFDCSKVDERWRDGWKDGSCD

SMILES: Oc1ccc(O)c(Cc2nc3ccccc3s2)c1
- EC50 [1]: > 380 µM (inactive)
- AC50 [2]: 33.1 µM (active)

SMILES: O=C(CSc1nnnn1C1CCCCC1)Nc1cccc(NC(=O)c2ccco2)c1
- IC50 [3]: > 100 µM (inactive)

SMILES: Cc1cnc(C(=O)Nc2ccc(OC(F)(F)F)cc2)cn1
- EC50 [4]: 98.1 µM (active)
- EC50 [5]: 17.5 µM (active)
- EC50 [6]: 13.9 µM (active)

SMILES: Cc1cc(N2CCN(C)CC2)nc2ccc(NC(=S)N3CCN(c4cccc(Cl)c4)CC3)cc12
- IC50 [7]: > 20 µM (inactive)

SMILES: COc1ccc(NC2=C(Cl)C(=O)N(CCc3ccccc3)C2=O)c(OC)c1
- EC50 [4]: 33.2 µM (active)
- EC50 [5]: 8.34 µM (active)
- EC50 [6]: 5.35 µM (active)

SMILES: CN(Cc1ccc(Cl)s1)C(=O)CCl
- EC50 [8]: 5.73 µM (active)
- EC50 [9]: 27.6 µM (active)
- EC50 [10]: > 150 µM (inconclusive)
- EC50 [1]: 8.93 µM (active)
- CC50 [11]: 11.7 µM (active)
- AC50 [2]: 50.5 µM (active)
- EC50 [12]: > 150 µM (inconclusive)

SMILES: Cc1ccc(NC(=O)C2=C(O)CCn3c2nc2ccccc23)cc1
- EC50 [4]: > 60 µM (not active)
- EC50 [5]: 12.5 µM (active)
- EC50 [6]: > 120 µM (not active)

SMILES: CCn1ccnc1CN(C)Cc1nc(-c2ccc3c(c2)OCO3)no1
- EC50 [4]: 21.4 µM (active)
- EC50 [5]: 12.5 µM (active)
- EC50 [6]: 6.38 µM (active)

SMILES: CCOC(=O)c1[nH]c(C)c(C(=O)Nc2ccc(C)c(Cl)c2)c1C
- EC50 [4]: > 120 µM (not active)
- EC50 [5]: 13.3 µM (active)
- EC50 [6]: > 120 µM (not active)

SMILES: COc1ccccc1NC(=O)c1cc(-c2cc(OC)c(OC)c(OC)c2)nc2ccccc12
- IC50 [13]: > 79 µM (inactive)

SMILES: COc1ccccc1CNC(=O)c1ccc2c(=O)n(CCCN3CCCC3=O)c(=S)[nH]c2c1
- IC50 [7]: > 20 µM (inactive)

SMILES: COC(=O)c1cc(OC)c(OC)cc1NC(=O)c1ccc(C)o1
- IC50 [13]: > 79 µM (inactive)

SMILES: O=C(/C=C/Nc1ccc(F)c(F)c1)c1cccs1
- IC50 [3]: 18.2 µM (active)

SMILES: O=C1N=C(Nc2ccccc2)S/C1=C\c1cccn1-c1ccccc1
- EC50 [4]: > 120 µM (not active)
- EC50 [5]: 32.5 µM (active)
- EC50 [6]: > 120 µM (not active)

SMILES: O=C(Nc1ccc(Cl)c(Cl)c1)Nc1ccccc1NS(=O)(=O)c1cccs1
- EC50 [1]: 29.1 µM (active)
- AC50 [14]: 7.6 µM (active)
- AC50 [2]: 4.19 µM (active)

SMILES: O=C(NCCCN1CCCC1)c1ccc2c(c1)N(Cc1ccccc1)CCS2
- IC50 [7]: > 20 µM (inactive)
- AC50 [15]: 0.022 µM (active)

SMILES: Cc1ccc(Nc2nc(-c3cccs3)cs2)nc1
- IC50 [3]: 54.6 µM (inactive)

SMILES: N#CC1=C(N)Oc2[nH]nc(-c3ccc(F)cc3)c2C1c1cccnc1 (centres undefined)
- EC50 [1]: 1.63 µM (active)
- AC50 [2]: 7.8 µM (active)
- IC50 [16]: 61.2 µM (active)

SMILES: Cc1ccc2c(c1)CCCN2C(=O)CCc1nc(O)c2ccccc2n1
- IC50 [13]: > 79 µM (inactive)

SMILES: Cc1ccccc1-n1c(SCC(=O)O)nc2sc3c(c2c1=O)CCCC3
- IC50 [3]: > 100 µM (inactive)

SMILES: COc1ccc(C(O)c2nc(-c3cccc(F)c3)cs2)cc1 (centres undefined)
- AC50 [17]: 41.9 µM (active)

SMILES: O=C(N/N=C/c1ccccn1)c1cccc([N+](=O)[O-])c1
- IC50 [13]: > 79 µM (inactive)
- IC50 [18]: 22.2 µM (active)

SMILES: Cc1ccc(/N=C/c2c(O)[nH]c3ccccc23)c([N+](=O)[O-])c1
- EC50 [4]: 22.3 µM (inconclusive)

SMILES: CCSc1ncc(/C=N/Nc2ccccc2)n1C
- IC50 [3]: > 100 µM (inactive)
